In ChEMBL document CHEMBL3297661, “1-Substituted-5-[(3,5-dinitrobenzyl)sulfanyl]-1H-tetrazoles and their isosteric analogs: A new class of selective antitubercular agents active against drug-susceptible and multidrug-resistant mycobacteria” (Eur J Med Chem, 2014):
Converted amounts (≈) assume the structure as drawn.

Experiments:
Type in all cases: functional
Mycobacterium kansasii [1] = test: Antimycobacterial activity against Mycobacterium kansasii CNCTC My 235/80 after 7 days by micromethod; conditions: CNCTC My 235/80, 168 h
[2] = tested on: Mycobacterium tuberculosis; test: Antimycobacterial activity against Mycobacterium tuberculosis CNCTC My 331/88 after 14 days by micromethod; conditions: CNCTC My 331/88, 336 h
Mycobacterium avium [3] = test: Antimycobacterial activity against Mycobacterium avium CNCTC My 330/88 after 14 days by micromethod; conditions: CNCTC My 330/88, 336 h
Mycobacterium kansasii [4] = test: Antimycobacterial activity against Mycobacterium kansasii 6509/96 after 14 days by micromethod; conditions: 6509/96, 336 h
[5] = tested on: Mycobacterium tuberculosis; test: Antimycobacterial activity against Mycobacterium tuberculosis CNCTC My 331/88 after 21 days by micromethod; conditions: CNCTC My 331/88, 504 h
Mycobacterium kansasii [6] = test: Antimycobacterial activity against Mycobacterium kansasii 6509/96 after 21 days by micromethod; conditions: 6509/96, 504 h
Mycobacterium kansasii [7] = test: Antimycobacterial activity against Mycobacterium kansasii CNCTC My 235/80 after 14 days by micromethod; conditions: CNCTC My 235/80, 336 h
Mycobacterium kansasii [8] = test: Antimycobacterial activity against Mycobacterium kansasii 6509/96 after 7 days by micromethod; conditions: 6509/96, 168 h
Mycobacterium kansasii [9] = test: Antimycobacterial activity against Mycobacterium kansasii CNCTC My 235/80 after 21 days by micromethod; conditions: CNCTC My 235/80, 504 h
Mycobacterium avium [10] = test: Antimycobacterial activity against Mycobacterium avium CNCTC My 330/88 after 21 days by micromethod; conditions: CNCTC My 330/88, 504 h

Row | Compound | MIC (Mycobacterium kansasii [1]) | MIC [2] | MIC (Mycobacterium avium [3]) | MIC (Mycobacterium kansasii [4]) | MIC [5] | MIC (Mycobacterium kansasii [6]) | MIC (Mycobacterium kansasii [7]) | MIC (Mycobacterium kansasii [8]) | MIC (Mycobacterium kansasii [9]) | MIC (Mycobacterium avium [10])
1 | O=[N+]([O-])c1cc(CSCc2ccccc2)cc([N+](=O)[O-])c1 | 125 µM (≈ 38 µg/mL) | 250 µM (≈ 76.1 µg/mL) | 125 µM (≈ 38 µg/mL) | 125 µM (≈ 38 µg/mL) | 250 µM (≈ 76.1 µg/mL) | 125 µM (≈ 38 µg/mL) | 125 µM (≈ 38 µg/mL) | 125 µM (≈ 38 µg/mL) | 125 µM (≈ 38 µg/mL) | 125 µM (≈ 38 µg/mL)
2 | CCCCCCCCCCCCCCCCSCc1cc([N+](=O)[O-])cc([N+](=O)[O-])c1 | 500 µM (≈ 219 µg/mL) | 1000 µM (≈ 439 µg/mL) | 1000 µM (≈ 439 µg/mL) | 500 µM (≈ 219 µg/mL) | 1000 µM (≈ 439 µg/mL) | 500 µM (≈ 219 µg/mL) | 500 µM (≈ 219 µg/mL) | 500 µM (≈ 219 µg/mL) | 500 µM (≈ 219 µg/mL) | 1000 µM (≈ 439 µg/mL)
3 | COc1ccc(-n2nnnc2SCc2cc(N)cc(N)c2)cc1 | 250 µM (≈ 82.1 µg/mL) | 125 µM (≈ 41.1 µg/mL) | 1000 µM (≈ 328 µg/mL) | 1000 µM (≈ 328 µg/mL) | 125 µM (≈ 41.1 µg/mL) | 1000 µM (≈ 328 µg/mL) | 1000 µM (≈ 328 µg/mL) | 250 µM (≈ 82.1 µg/mL) | 1000 µM (≈ 328 µg/mL) | 1000 µM (≈ 328 µg/mL)
4 | O=[N+]([O-])c1cc(CSc2nnn[nH]2)cc([N+](=O)[O-])c1 | 250 µM (≈ 70.6 µg/mL) | 1000 µM (≈ 282 µg/mL) | 1000 µM (≈ 282 µg/mL) | 500 µM (≈ 141 µg/mL) | 1000 µM (≈ 282 µg/mL) | 500 µM (≈ 141 µg/mL) | 1000 µM (≈ 282 µg/mL) | 250 µM (≈ 70.6 µg/mL) | 1000 µM (≈ 282 µg/mL) | 1000 µM (≈ 282 µg/mL)
5 | O=[N+]([O-])c1cc(C[S+]([O-])c2nnnn2-c2ccccc2)cc([N+](=O)[O-])c1 (stereo not given) | 62 µM (≈ 23.2 µg/mL) | 62 µM (≈ 23.2 µg/mL) | 125 µM (≈ 46.8 µg/mL) | 250 µM (≈ 93.6 µg/mL) | 62 µM (≈ 23.2 µg/mL) | 250 µM (≈ 93.6 µg/mL) | 250 µM (≈ 93.6 µg/mL) | 125 µM (≈ 46.8 µg/mL) | 250 µM (≈ 93.6 µg/mL) | 125 µM (≈ 46.8 µg/mL)
6 | COc1ccc(-n2nnnc2SCc2cc(N)cc([N+](=O)[O-])c2)cc1 | 250 µM (≈ 89.6 µg/mL) | 250 µM (≈ 89.6 µg/mL) | 250 µM (≈ 89.6 µg/mL) | 250 µM (≈ 89.6 µg/mL) | 250 µM (≈ 89.6 µg/mL) | 250 µM (≈ 89.6 µg/mL) | 250 µM (≈ 89.6 µg/mL) | 250 µM (≈ 89.6 µg/mL) | 250 µM (≈ 89.6 µg/mL) | 250 µM (≈ 89.6 µg/mL)
7 | COc1cc(-n2nnnc2OCc2cc([N+](=O)[O-])cc([N+](=O)[O-])c2)cc(OC)c1OC | 8 µM (≈ 3.46 µg/mL) | 16 µM (≈ 6.92 µg/mL) | 32 µM (≈ 13.8 µg/mL) | 32 µM (≈ 13.8 µg/mL) | 16 µM (≈ 6.92 µg/mL) | 62 µM (≈ 26.8 µg/mL) | 16 µM (≈ 6.92 µg/mL) | 16 µM (≈ 6.92 µg/mL) | 32 µM (≈ 13.8 µg/mL) | 32 µM (≈ 13.8 µg/mL)
8 | CCN(CC)c1ccc(-n2nnnc2SCc2cc([N+](=O)[O-])cc([N+](=O)[O-])c2)cc1 | 4 µM (≈ 1.72 µg/mL) | 2 µM (≈ 0.859 µg/mL) | 62 µM (≈ 26.6 µg/mL) | 16 µM (≈ 6.87 µg/mL) | 2 µM (≈ 0.859 µg/mL) | 62 µM (≈ 26.6 µg/mL) | 8 µM (≈ 3.44 µg/mL) | 8 µM (≈ 3.44 µg/mL) | 32 µM (≈ 13.7 µg/mL) | 62 µM (≈ 26.6 µg/mL)
9 | CSCc1cc([N+](=O)[O-])cc([N+](=O)[O-])c1 | 62 µM (≈ 14.2 µg/mL) | 62 µM (≈ 14.2 µg/mL) | 250 µM (≈ 57.1 µg/mL) | 250 µM (≈ 57.1 µg/mL) | 125 µM (≈ 28.5 µg/mL) | 500 µM (≈ 114 µg/mL) | 125 µM (≈ 28.5 µg/mL) | 125 µM (≈ 28.5 µg/mL) | 250 µM (≈ 57.1 µg/mL) | 250 µM (≈ 57.1 µg/mL)
10 | O=[N+]([O-])c1cc(CSc2nnnn2-c2ccc(Br)cc2)cc([N+](=O)[O-])c1 | 1 µM (≈ 0.437 µg/mL) | 1 µM (≈ 0.437 µg/mL) | 125 µM (≈ 54.7 µg/mL) | 4 µM (≈ 1.75 µg/mL) | 1 µM (≈ 0.437 µg/mL) | 4 µM (≈ 1.75 µg/mL) | 2 µM (≈ 0.874 µg/mL) | 2 µM (≈ 0.874 µg/mL) | 2 µM (≈ 0.874 µg/mL) | 125 µM (≈ 54.7 µg/mL)
11 | c1ccc(C[Se]c2nnnn2-c2ccccc2)cc1 | 2 µM (≈ 0.63 µg/mL) | 125 µM (≈ 39.4 µg/mL) | 62 µM (≈ 19.5 µg/mL) | 125 µM (≈ 39.4 µg/mL) | 125 µM (≈ 39.4 µg/mL) | 250 µM (≈ 78.8 µg/mL) | 8 µM (≈ 2.52 µg/mL) | 32 µM (≈ 10.1 µg/mL) | 16 µM (≈ 5.04 µg/mL) | 125 µM (≈ 39.4 µg/mL)
12 | COc1ccc(-n2nnnc2OCc2cc([N+](=O)[O-])cc([N+](=O)[O-])c2)cc1 | 4 µM (≈ 1.49 µg/mL) | 2 µM (≈ 0.745 µg/mL) | 16 µM (≈ 5.96 µg/mL) | 16 µM (≈ 5.96 µg/mL) | 2 µM (≈ 0.745 µg/mL) | 16 µM (≈ 5.96 µg/mL) | 8 µM (≈ 2.98 µg/mL) | 4 µM (≈ 1.49 µg/mL) | 16 µM (≈ 5.96 µg/mL) | 32 µM (≈ 11.9 µg/mL)
